Test results as given in patent EP4740947A1, “PHARMACEUTICAL COMBINATION OF EGFR KINASE INHIBITOR AND C-MET KINASE INHIBITOR FOR TREATING TUMOR DISEASES” (Jiangsu AoSaiKang Pharmaceutical Co., Ltd., priority 2023, dated 2025).
“And” between values parts separate entries of the source, which are not always exact repeats. Equal values may be shown once.

Experiments:
NCI-H1975-HGF = test: Efficacy study in xenograft model established with engineered cell line NCI-H1975-HGF in immunodeficient mice; assay type: in vivo, B-NDG mice; conditions: for NCI-H1975 HGF tumor volume (mm^3): mean ± standard error; for TGI (%) / ΔT/ΔC (%): Day 15 vs vehicle
Method: The efficacy of the test drugs in a xenograft model established with the engineered cell line NCI-H1975-HGF in immunodeficient mice was verified.
Table 1. Cell information
B-NDG mice, female, age: 8 weeks, weight: 18-22 g, purchased from Biocytogen.
• Vehicle: 20% solutol/80% 100 mM sodium acetate buffer pH 5.5; • ASK-MET: hydrochloride of the compound of Formula (II), prepared with 20% solutol/80% 100 mM sodium acetate buffer pH 5.5, concentration: 0.2 mg/mL; • ASK-EGFR: compound of Formula (I), prepared with 0.5% sodium carboxymethyl cellulose solution (0.5%CMC-Na), concentration: 2 mg/mL. • Solutol: polyethylene glycol-15 hydroxystearate; • 100 mM sodium acetate buffer pH 5.5; • 20% solutol/80% 100 mM sodium acetate buffer pH 5.5 means that the volume ratio of solutol to 100 mM sodium acetate buffer pH 5.5 in the drug solution was 20:80, the same below.
1) NCI-H1975-HGF was resuscitated and cultured in vitro to obtain 1.5*10^7 cells. 2) 15 8-10-week-old immunodeficient mice were adaptively raised for 1 week, and weighed. Table 2. Inoculation information
4) After inoculation, the tumor volume and weight were measured twice a week. When the average tumor volume reached about 100 mm^3, the animals were randomly divided into 4 groups according to the tumor volume and weight, each group having 3 animals. The animals were immediately administered after grouping. The day of administration was regarded as day 0. Table 3. Grouping and administration information
After inoculation and before grouping, when the tumor was visible, the tumor volume of the test animals was measured once a week. After grouping, the tumor volume of animals in the experiment was measured twice a week. The tumor volume was measured by a two-way measurement method. The major and minor diameter of the tumor were measured by vernier caliper, and then the tumor volume was calculated by the formula TV = 1/2 × a × b^2, where a is the major diameter of the tumor and b is the minor diameter of the tumor.
At the end of the experiment, the following analysis methods were used for data analysis (Table 4). Table 4. Data analysis methods
For an experiment having two groups, T-Test analysis method is used; and for comparison of three or more groups, One-Way ANOVA method is used for analysis. For the potential synergistic effect, Two-Way ANOVA is used. There is a significant difference when p value is less than 0.05.

[1] = test system: LD1-0025-200662 human lung cancer tissue; test: Efficacy study in patient derived xenograft (PDX) tumor model established with LD1-0025-200662 human lung cancer tissue; assay type: in vivo, NU/NU mice; conditions: for Complete tumor regression (%): rate of mice, observed by naked eyes on day 21; for T/C% Day 21: relative tumor proliferation rate; for T/C (%) (tumor weight): tumor weight vs vehicle
Method: NU/NU mice were subcutaneously inoculated with human lung cancer tissue LD1-0025-200662 to establish an in-vivo xenograft tumor model, and then the efficacy of the test drugs ASK-MET alone, ASK-EGFR alone, ASK-MET+ASK-EGFR in combination and RefT+ ASK-EGFR in combination in the model were evaluated.
LD1-0025-200662 (see Table 8), a patient derived human lung cancer tissue, was sub-cultured to FP3+3 passages for this efficacy test. Table 8. Xenograft tumor model
NU/NU mice, female, age: 42-62 days, weight: 18-22 g, purchased from Zhejiang Vital River Laboratory Animal Technology Co., Ltd. (Production license: SCXK(Zhe)2019-0001).
• Vehicle: 20% solutol/80% 100 mM sodium acetate buffer pH 5.5; • ASK-MET: hydrochloride of the compound of Formula (II), prepared with 20% solutol/80% 100 mM sodium acetate buffer pH 5.5, concentration: 0.1 mg/mL, 0.3 mg/mL; • ASK-EGFR: compound of Formula (I), prepared with 0.5% sodium carboxymethyl cellulose solution (0.5%CMC-Na), concentration: 2 mg/mL; • RefT: prepared with 20% solutol/80% 100 mM sodium acetate buffer pH 5.5, concentration: 0.3 mg/mL; RefT is a small-molecule MET kinase inhibitor approved by USFDA.
Immunodeficient mice were subcutaneously inoculated with LD1-0025-200662 tumor tissue, and observed continuously till tumor formation. When the tumor volume reached about 1000 mm^3, the tumor tissue was peeled off and cut into tumor tissue with a size of about 3 mm × 3 mm × 3 mm (about 50-90 mg), and inoculated subcutaneously in NU/NU mice. The inoculated mice were observed and the growth of tumor was monitored. When the average tumor volume of tumor-bearing mice reached 193.40 mm^3, the mice were randomly divided into groups, administered and observed. The tumor volume and weight of all tumor-bearing mice were measured before grouping, and the tumor-bearing mice were randomly grouped according to the measured tumor volume. According to the principle of random block design, the mice were first divided into blocks according to the tumor volume, and then the mice in each block were randomly assigned to each treatment group. Table 9. Administration and treatment
5.1 Measurement of tumor volume and weight of tumor-bearing mice: The measurement was made twice a week by using a vernier caliper, and the tumor volume was calculated by a formula V = 0.5 × a × b^2, where a and b were respectively the major and minor diameters of the tumor.
5.2 Tumor growth inhibition TGI (%)= [1-(Ti-T0) / (Vi-V0)] × 100, where Ti-T0>0; TGI (%) = [1-(Ti-T0)/ T0] × 100, where Ti-T0<0. T0 was the average tumor volume at the first administration in the treatment group, Ti was the average tumor volume at a certain measurement after administration in the treatment group, V0 was the average tumor volume at the first administration in the vehicle control group, and Vi was the average tumor volume at a certain measurement after administration in the vehicle control group.
5.3 Relative tumor proliferation rate T/C (%): The calculation formula is as follows: T/C % = TRTV / CRTV × 100 % (TRTV: RTV of the treatment group; CRTV: RTV of the negative control group). According to the results of tumor measurement, the relative tumor volume (RTV) was calculated by a formula RTV = Vt / V0, where V0 was the average tumor volume measured at the time of grouping for administration (that is, d0), Vt was the average tumor volume measured at a certain measurement, and TRTV and CRTV data of the same day was used.
5.4 Synergistic effect in combined treatment group: Jin's formula Q=E(a+b)/[Ea+Eb-Ea × Eb], where Ea was TGI of a drug alone, and Q value>1 reflected that drug combination has a synergistic effect.
5.5 After the experiment, the tumor was stripped, weighed and photographed. T/Cweight%= Tweight /Vweight × 100%, where Tweight was the average tumor weight of the compound group at the end of the experiment, and Vweight was the average tumor weight of the vehicle control group at the end of the experiment.
All data is expressed as Mean±SEM. […]

[2] = ASK-EGFR 20 mg/kg p.o. QD×15 (G4)
[3] = ASK-EGFR 20 mg/kg p.o. QD×21 (G2)
[4] = Day 21, ASK-EGFR 20 mg/kg p.o. QD×21 (G2)
[5] = ASK-MET 2 mg/kg p.o. QD×15 (G2)
[6] = ASK-MET 1 mg/kg p.o. QD×(D0-D7) (G3)
[7] = ASK-MET 3 mg/kg p.o. QD×(D0-D7) (G4)
[8] = Day 21, ASK-MET 1 mg/kg p.o. QD×(D0-D7) (G3)
[9] = Day 21, ASK-MET 3 mg/kg p.o. QD×(D0-D7) (G4)

For C=CC(=O)Nc1cc(Nc2ncc(Cl)c(Nc3ccc4ccccc4c3)n2)c(OC)cc1N(C)CCN(C)C [ASK-EGFR, N-((5-((5-chloro-4-((naphthalen-2-yl)amino))pyrimidin-2-yl)amino)-2-((N-methyl-N-dimethylaminoethyl)amino)-4-methoxyphenyl) acrylamide], the “NCI-H1975 HGF tumor volume (mm^3)” value (NCI-H1975-HGF; Day 0, ASK-EGFR 20 mg/kg p.o. QD×15 (G4)) was 94.47 ±9.54 mm^3, the “NCI-H1975 HGF tumor volume (mm^3)” value (NCI-H1975-HGF; Day 2, ASK-EGFR 20 mg/kg p.o. QD×15 (G4)) was 154.47 ±24.23 mm^3 and the “NCI-H1975 HGF tumor volume (mm^3)” value (NCI-H1975-HGF; Day 5, ASK-EGFR 20 mg/kg p.o. QD×15 (G4)) was 201.41 ±24.69 mm^3. For the same molecule, the “NCI-H1975 HGF tumor volume (mm^3)” value (NCI-H1975-HGF; Day 8, ASK-EGFR 20 mg/kg p.o. QD×15 (G4)) was 357.90 ±31.91 mm^3, the “NCI-H1975 HGF tumor volume (mm^3)” value (NCI-H1975-HGF; Day 12, ASK-EGFR 20 mg/kg p.o. QD×15 (G4)) was 440.56 ±16.92 mm^3 and the “NCI-H1975 HGF tumor volume (mm^3)” value (NCI-H1975-HGF; Day 15, ASK-EGFR 20 mg/kg p.o. QD×15 (G4)) was 589.86±36.92 mm^3. The “TGI (%)” value (NCI-H1975-HGF; [2]) was 58.01%, the “ΔT/ΔC (%)” value (NCI-H1975-HGF; [2]) was 41.99% and the “Tumor volume (mm^3) (Mean ± SEM) Day 0” value [1, 3] was 169.31±14.43 mm^3. For the same molecule, the “Tumor volume (mm^3) (Mean ± SEM) Day 21” value [1, 4] was 1239.58±146.6 mm^3, the “Tumor weight (g) (Mean ± SEM) Day 21 after treatment” value [1, 4] was 1.19 ± 0.16 g and the “TGI% Day 21” value ([1]; Day 21 vs vehicle, ASK-EGFR 20 mg/kg p.o. QD×21 (G2)) was 1.96%. The “Complete tumor regression (%)” value [1, 3] was 0.00% and 0 (0/8) %, the “T/C% Day 21” value [1, 4] was 98.77% and the “T/C (%) (tumor weight)” value [1, 4] was 93.41%.

CC(C)(O)CN1CCC(COc2cnc(-c3cccc(Cn4c(=O)ccn5c6cc(C#N)ccc6nc45)c3)nc2)CC1 [ASK-MET] was tested, and the “NCI-H1975 HGF tumor volume (mm^3)” value (NCI-H1975-HGF; Day 0, ASK-MET 2 mg/kg p.o. QD×15 (G2)) was 96.28 ±7.10 mm^3, the “NCI-H1975 HGF tumor volume (mm^3)” value (NCI-H1975-HGF; Day 2, ASK-MET 2 mg/kg p.o. QD×15 (G2)) was 147.46 ±23.06 mm^3 and the “NCI-H1975 HGF tumor volume (mm^3)” value (NCI-H1975-HGF; Day 5, ASK-MET 2 mg/kg p.o. QD×15 (G2)) was 274.61 ±85.69 mm^3. For the same molecule, the “NCI-H1975 HGF tumor volume (mm^3)” value (NCI-H1975-HGF; Day 8, ASK-MET 2 mg/kg p.o. QD×15 (G2)) was 434.60 ±55.60 mm^3, the “NCI-H1975 HGF tumor volume (mm^3)” value (NCI-H1975-HGF; Day 12, ASK-MET 2 mg/kg p.o. QD×15 (G2)) was 658.86 ±111.99 mm^3 and the “NCI-H1975 HGF tumor volume (mm^3)” value (NCI-H1975-HGF; Day 15, ASK-MET 2 mg/kg p.o. QD×15 (G2)) was 940.03±159.86 mm^3. The “TGI (%)” value (NCI-H1975-HGF; [5]) was 28.48%, the “ΔT/ΔC (%)” value (NCI-H1975-HGF; [5]) was 71.52% and the “complete tumor regression of tumor-bearing mice (in words)” value ([1]; ASK-MET 1 mg/kg (G3)) was “varying degrees of complete tumor regression”. For the same molecule, the “inhibition on the growth of subcutaneous xenograft tumor” value ([1]; ASK-MET 1 mg/kg (G3)) was “statistically significant inhibition”, the “complete tumor regression of tumor-bearing mice (in words)” value ([1]; ASK-MET 3 mg/kg (G4)) was “varying degrees of complete tumor regression” and the “inhibition on the growth of subcutaneous xenograft tumor” value ([1]; ASK-MET 3 mg/kg (G4)) was “statistically significant inhibition”. The “Tumor volume (mm^3) (Mean ± SEM) Day 0” value [1, 6] was 168.78±15.38 mm^3, the “Tumor volume (mm^3) (Mean ± SEM) Day 0” value [1, 7] was 170.65±12.40 mm^3 and the “Tumor volume (mm^3) (Mean ± SEM) Day 21” value [1, 8] was 116.01±35.11 mm^3. The “Tumor weight (g) (Mean ± SEM) Day 21 after treatment” value [1, 8] was 0.12 ± 0.04 g, the “TGI% Day 21” value ([1]; Day 21, ASK-MET 1 mg/kg p.o. QD×(D0-D7) (G3), above 100 = regression by formula of b100) was 131.27% and the “Tumor volume (mm^3) (Mean ± SEM) Day 21” value [1, 9] was 3.54±2.35 mm^3. The “Tumor weight (g) (Mean ± SEM) Day 21 after treatment” value [1, 9] was 0.01 ± 0.00 g, the “TGI% Day 21” value ([1]; Day 21, ASK-MET 3 mg/kg p.o. QD×(D0-D7) (G4), above 100 = regression by formula of b100) was 197.93% and the “Complete tumor regression (%)” value [1, 6] was 12.5% and 12.5 (1/8) %. The “Complete tumor regression (%)” value [1, 7] was 75% and 75 (6/8) %, the “T/C% Day 21” value [1, 8] was 9.27% and the “T/C% Day 21” value [1, 9] was 0.28%. For the same molecule, the “T/C (%) (tumor weight)” value [1, 8] was 9.18% and the “T/C (%) (tumor weight)” value [1, 9] was 0.39%.
